Measured values from patent publication US5612369A, “Thrombin inhibitors” (3-Dimensional Pharmaceuticals, Inc., priority 1995, dated 1997).

Legend:
human α-thrombin = molecular target: T1, human α-thrombin (Homo sapiens, UniProt P00734); assay: In vitro inhibition of purified thrombin (hydrolysis of Bz-Phe-Val-Arg-pNa); type: biochemical; settings: for thrombin inhibition, potency and selectivity in words: conclusion from Table 1 (versus factor Xa and plasmin); for IC50: purified human α-thrombin 36 nM, Bz-Phe-Val-Arg-pNa 66 μM, pH 7.5, 37° C.
T1 construct: Purified human α-thrombin; purchased Enzyme Research Laboratories, Inc
Procedure: (§1) The ability of the compounds of the present invention to act as inhibitors of thrombin, factor Xa and plasmin catalytic activity was assessed by determining the concentration which inhibited enzyme activity by 50% using purified human enzymes. The concentration of added inhibitor that caused a 50% decrease in the initial rate of hydrolysis was defined as the IC50 value.
All assays are based on the ability of the test compound to inhibit the hydrolysis of a peptide p-nitroanilide substrate. In a typical experiment, appropriate substrate is prepared in DMSO, and diluted into an assay buffer consisting of 50ram HEPES and 130 mM NaCl at a pH of 7.5. The final concentration for each of the substrates is listed below. All substrate concentrations are at least 10 fold lower than Km to insure inhibition is competitive. Test compounds are prepared as 1 mg/ml solutions in DMSO, and three additional 10-fold dilutions in DMSO are prepared. Enzyme solutions are prepared at the concentrations listed below in assay buffer.
(§2) In a typical IC50 determination, into each well of a 96 well plate is pipetted 280 uL of substrate solution, 10 μL of inhibitor solution, and the plate is allowed to thermally equilibrate at 37° C. in a Molecular Devices Plate Reader for at least 10 minutes. Reactions are initiated by the addition of a 20 μL aliquot of enzyme, and the absorbance increase at 405 nm is recorded for 15 minutes. Data corresponding to less than 10% of the total substrate hydrolysis is used in the calculations. The ratio of the velocity (rate of the change in absorbance as a function of time) for a sample containing no inhibitor is divided by the velocity of a sample containing inhibitor, and is plotted as a function of inhibitor concentration. The inverse of the slope is the concentration of inhibitor which produces a 50% decrease in activity of the enzyme. This concentration is referred to as the IC50.
Thrombin activity was assessed as the ability to hydrolyse the substrate N-benzoyl-Phe-Val-Arg-p-nitroanilide (Bz-Phe-Val-Arg-pNa), and was obtained from Sigma Chemical Company (St. Louis, Mo.). Substrate solutions were prepared at a concentration of 60 μM (60 μM<<Km =1.2 mM) in assay buffer. Final DMSO concentration was 0.3%. Purified human α-thrombin was obtained from Enzyme Research Laboratories, Inc., and was diluted into assay buffer to a concentration of 1.2 μM. Final reagent concentrations were: [thrombin]=36 nM, [Bz-Phe-Val-Arg-pNa]=66 μM, [inhibitor]=60 to 0.06 μM.

factor Xa = assay: In vitro inhibition of factor Xa (hydrolysis of Bz-Ile-Glu-Gly-Arg-pNa); type: biochemical, human; settings: at 60 μM inhibitor; factor Xa 10 nM, Bz-Ile-Glu-Gly-Arg-pNa 26 μM, pH 7.5, 37° C.
Procedure: as §1
All assays are based on the ability of the test compound to inhibit the hydrolysis of a peptide p-nitroanilide substrate. In a typical experiment, appropriate substrate is prepared in DMSO, and diluted into an assay buffer consisting of 50ram HEPES and 130 mM NaCl at a pH of 7.5. The final concentration for each of the substrates is listed below. […]
as §2, with “Data corresponding to less than 10% of the total substrate hydrolysis is used in the calculations.” left out, “The inverse of the slope is the concentration of inhibitor which produces a 50% decrease in activity of the enzyme. This concentration is referred to as the IC50.” left out

| SMILES | thrombin inhibition, potency and selectivity in words (human α-thrombin) | IC50 (human α-thrombin) | Factor Xa % Inhibition at 60 μM (factor Xa) |
| --- | --- | --- | --- |
| COc1cc(CNC(=O)[C@@H]2CCCN2C(=O)[C@H](N)Cc2ccccc2)ccc1O [Compound 7, D-phenylalanyl-N-[2-(4-hydroxy-3-methoxybenzyl)]-L-prolinamide] | highly selective and potent inhibitors of thrombin | 4.7 µM | 0% |
| Nc1ccc(CNC(=O)[C@@H]2CCCN2C(=O)[C@@H](Cc2ccccc2)NC(=O)OCc2ccccc2)cc1 [Compound 12, N-CBZ-D-phenylalanyl-N-[2-(4-aminobenzyl)]-L-prolinamide] | highly selective and potent inhibitors of thrombin | 2.8 µM | – |
| Nc1ccc(CNC(=O)[C@@H]2CCCN2C(=O)[C@H](N)Cc2ccccc2)cc1 [Compound 13, D-phenylalanyl-N-[2-(4-aminobenzyl)]-L-prolinamide] | highly selective and potent inhibitors of thrombin | 1 µM | 0% |
